US20160243237A1, “EMULSIONS OF PERFLUOROCARBONS” (TENAX THERAPEUTICS, INC., priority 2009, published 2016)
Entries after “also recorded” stand apart in the source; their conditions may differ.

Experiments:
[1] = Mechanical stability of the emulsion with tonicity adjusters; type: physicochemical; settings: tonicity adjuster compared with sodium chloride
Excerpt: Glycerin USP is used in the formulation to adjust the tonicity of the emulsion. For intravenous infusion, it is important that the tonicity of the emulsion be in the same physiological range as blood tonicity. Glycerin was chosen because it has a long history of use in parenteral emulsions and because it is not an ionizable species that could contribute to coalescence of the emulsion particles by disruption of the charged layer (zeta potential) surrounding the particles.

monkeys = assay: Single-dose GLP toxicity study, pulmonary hyperinflation; type: in vivo; settings: 60% and 20% w/v, compared with PFOB
Excerpt: (§1) Perfluoro(tert-butylcyclohexane) at both 60% and 20% w/v concentrations has been tested in controlled, single-dose Good Laboratory Practice (GLP) toxicity studies in rats and monkeys. […] Nevertheless, perfluoro(tert-butylcyclohexane) represents a better balance between persistence and the tendency to produce hyperinflated, non-collapsible lungs than what is seen with PFOB and perfluorodecalin.

[2] = Physical properties of perfluoro(tert-butylcyclohexane); type: physicochemical
Excerpt: Physical properties of perfluoro(tert-butylcyclohexane) are as follows: […]

rats and monkeys = assay: Single-dose GLP toxicity studies, absorption and persistence; type: in vivo
Excerpt: as §1

[3] = Solubility of FtBu in water and solvents; type: physicochemical; settings: room temperature
Excerpt: FtBu is most soluble in halogenated solvents such as isoflurane. Therefore, FtBu needs to be formulated as an aqueous emulsion for intravenous administration.

skin tissue = assay: Measuring oxygen tension in tissue with fluorescent marker (Example 3); type: in vivo; settings: skin area treated with PFC
Procedure: A material which binds oxygen (fluorescent marker) is injected into skin tissue. The combination is fluorescent and the more oxygen that is present, the stronger the fluorescent signal. (representing the oxygen tension in the tissue). First it is determined that fluorescence chemistry is unaffected by the PFCs and poloxamers. Then as a control, the fluorescent marker is injected into the skin, and oxygen tension is obtained. Finally, the same area is treated with a PFC, PFC emulsion or a PFC gel and oxygen tension is again obtained.

[4] = Gas carrying capacity (oxygen, CO2); type: physicochemical; settings: at body temperature
Procedure: Perfluoro(tert-butylcyclohexane) can carry about 43 mL of oxygen per 100 mL of PFC, and 196 mL of CO2 per 100 mL of PFC at body temperature.
FtBu can dissolve and release large amounts of gases, including the blood gases oxygen and carbon dioxide. […] As such, no sinusoidal release curve of oxygen is encountered. The transport and release of oxygen and other gases by FtBu is a simple passive process, the quantity of gas dissolved is linearly related to its partial pressure, essentially following Henry's Law.
In the body the PFC emulsion is capable of uploading and unloading oxygen and CO2 more efficiently than blood, (at a FtBu concentration of 60% w/v, Oxycyte® can dissolve 3-4 times the amount of oxygen than human hemoglobin can off-load under normal physiological conditions) and this process is concentration-gradient mediated (Henry's Law). Because the median size of the PFC droplets is approximately 40-50 times smaller than an erythrocyte, Oxycyte® is able to oxygenate tissues with narrowed capillaries, as occurs in brain contusions. After about 10 hours, half of an intravenous dose of 3 mL/kg remains in the circulation. PFCs are eliminated from the blood when macrophages scavenge the lipid particles. This is quite similar to how Intralipid® is transported from the blood stream. PFCs are deposited in the liver and spleen. […]

Row | mechanical stability of the emulsion [1] | Density [2] | Kinematic Viscosity [2] | Vapor Pressure @ 25° C. ([2]; 25° C.) | Vapor Pressure @ 37° C. ([2]; 37° C.) | solubility in 2,2,4-trimethylpentane(isooctane) [3] | solubility in halogenated solvents such as isoflurane [3] | solubility in water [3] | CO2 carried [4] | oxygen carried [4] | SMILES | degree of pulmonary hyperinflation (monkeys) | persistence in liver and spleen (RES half-life) (rats and monkeys; compared with PFOB) | absorption in the body (rats and monkeys; single dose) | local oxygen tension in the tissue (skin tissue)
1 | superior to sodium chloride |  |  |  |  |  |  |  |  |  | OCC(O)CO [glycerin, Glycerin] |  |  |  | 
2 | superior to sodium chloride |  |  |  |  |  |  |  |  |  | OC[C@@H](O)[C@@H](O)[C@H](O)[C@H](O)CO [mannitol] |  |  |  | 
3 |  | 1.97 g/mL | 5.378 cP | 3.8 mmHg | 4.4 mmHg | only minimal solubility | most soluble | virtually insoluble in water | ~196 mL of CO2 per 100 mL of PFC | about 43 mL of oxygen per 100 mL of PFC | FC(F)(F)C(C(F)(F)F)(C(F)(F)F)C1(F)C(F)(F)C(F)(F)C(F)(F)C(F)(F)C1(F)F [perfluoro(tert-butylcyclohexane), 1-(1,1-bis(trifluoromethyl)-2,2,2-trifluoroethyl)-1,2,2,3,3,4,4,5,5,6,6-undecafluorocyclohexane] | significantly less than that seen in monkeys treated with PFOB; also recorded: correspondingly lesser propensity to cause pulmonary hyperinflation | somewhat longer than what has been reported for PFOB; also recorded: somewhat longer than that of the benchmark perfluorocarbon, PFOB | generally comparable to what has been reported for other PFCs | substantially increases local oxygen tension
